Results as given in patent US20240115566A1, “METHODS OF TREATING DISORDERS ASSOCIATED WITH CASTOR” (ST. JUDE CHILDREN'S RESEARCH HOSPITAL, INC., priority 2020, published 2024).
Like-named read-outs stand apart in the source and are kept apart here.

Tests used:
C57BL/6J mice = test: Liver total CoA and drug exposure in C57BL/6J mice (gavage or chow)
[1] = test system: Pcca−/−PCCA(A138T)tg/0 (PA) mice; test: Short-term (3-day gavage) PZ-3022 treatment of PA mice: liver CoA pools and carnitines
[2] = test system: Pcca−/−PCCA(A138T)tg/0 (PA) mice
wild-type mice = test: Effect of PZ-3022 chow on liver CoA, amino acids and TCA metabolites in wild-type mice; assay type: in vivo, mouse
Method: FIGS. 20A-20E show liver CoASH (20A), liver C2-CoA (20B), liver C3-CoA (20C), liver C3:C2-CoA ratio (20D), and plasma and urine amino acid levels (20E). Number of mice in each group are shown in parenthesis. Amino acids were measured by mass spectrometry using warfarin as an internal standard except for glycine, which was measured as its benzoyl derivative. […] Two male (blue) and three female (red) mice were used for each determination.
Urinary TCA cycle metabolites eliminated over 24 h were quantified by mass spectrometry and normalized to mouse body weight. […] Male (blue) and female (red) mice were used for each determination. Number of mice in each group are shown in parenthesis.
(§1) Animal experiments. […] Water was supplied ad libitum.

C3A cells = test: Total cellular CoA in C3A cells; assay type: cell-based, human; conditions: 10 μM, 24 h
Method: Cell culture. Human C3A (HepG2/C3A) cells (#CRL-1074) were purchased from ATCC® and maintained in DMEM supplemented with 2 mM glutamine, 10% fetal bovine serum (Atlanta Biologicals), 50 U/ml penicillin and […] streptomycin. HEK293T cells (ATCC, #CRL-3216) were used for expression of human PCCA protein standard and were maintained in DMEM plus supplements as described above. Each cell line was confirmed to be mycoplasma-free. […] DMSO alone was added to control cultures. Culture medium was aspirated off the dish, cells were quickly washed with ice-cold phosphate-buffered saline that was quickly aspirated off the dish, and cells were quickly washed again with ice-cold water that was aspirated off to remove residual saline. Ice-cold water (1 ml) was added to the culture dish, cells were scraped into the cold water and the cell suspension was transferred to a glass test tube containing 400 μl of […] KOH and 1.5 ml water for analysis of total CoA content.

in vivo = conditions: male, BALB/c, mouse, plasma; for bioavailability: oral
[3] = test system: Pcca−/−PCCA(A138T)tg/0 (PA) mice; test: TCA cycle intermediates in urine of PZ-3022-treated PA mice; assay type: in vivo, mouse; conditions: PZ-3022 therapy
Method: FIGS. 6A-6B show TCA cycle intermediates in plasma and urine of treated PA mice. Urinary TCA cycle metabolites eliminated over 24 h were quantified by mass spectrometry and normalized to mouse body weight. […] Three male (blue) and three female (red) mice were used for each determination.
as §1
Metabolites in urine and plasma. Water was added to a 24-h urine sample to a final volume of 1 ml for each mouse. To 100 μl of urine or 20 μl of plasma, warfarin standard was added at a final concentration of 0.2 μM and the sample was incubated at −80° C. for 1 hour. The sample was centrifuged at 6000×g for 10 minutes to remove precipitants and the supernatant was analyzed by LC/MS/MS. […] Solvent A was 0.1% formic acid in water, and Solvent B was acetonitrile+0.1% formic acid. […] The MRMs for metabolites in either the positive or negative mode were taken from. The MRMs for the warfarin internal standard were: negative mode, 307.1/161.0; and positive mode, 309.1/163.0. […] The relative amount of metabolite was normalized to the amount of warfarin. To improve glycine detection, this metabolite was measured after derivatization with benzoyl chloride using the technology and MRMs described.

[4] = test system: neuronal SynCre+ Pank1,2 dKO mice; test: Survival, weight gain and physiology of neuronal SynCre+ Pank1,2 dKO mice on Compound 1 chow; assay type: in vivo, mouse; conditions: 75 ppm chow
Text: All procedures were reviewed and approved by the St. Jude Children's Research Hospital Institutional Animal Care and Use Committee. […] The mice were maintained at room temperature, humidity 50±10% and a 14/10-hour light/dark cycle. […] Water was supplied ad libitum. Mice were randomized into the treatment arms at weaning.
Neuron-specific deletion of Pank1 and Pank2 was confirmed by PCR genotyping of brain and liver postmortem as described by Sharma et al.

[5] = Pharmacokinetic evaluation in plasma of male BALB/c mice
[6] = 10 or 30 mg/kg plus 50 mg/kg pantothenate, 3 doses
[7] = 75 ppm chow to day 70, male and female
[8] = 24 h urine normalized to body weight

For `N#Cc1ccc(N2CCN(C(=O)Cc3ccc(C4CC4)cc3)CC2)nn1` [PZ-3022, 6-(4-(2-(4-cyclopropylphenyl)acetyl)piperazin-1-yl)pyridazine-3-carbonitrile], the “Elevation of hepatic total CoA” value (C57BL/6J mice; 10 mg/kg oral gavage every 24 h for three days, 4 h after last dose) was “slightly more potent in elevating CoA than PZ-2891”, the “Total liver CoA versus dose in chow” value (C57BL/6J mice; 7.5, 37.5 and 75 ppm in chow with 1000 ppm pantothenate, 1 week) was “dose response relationship” and the “Plasma and liver PZ-3022 levels versus dose in chow” value (C57BL/6J mice; 7.5, 37.5 and 75 ppm in chow, 1 week) was “dose-dependent increase in drug”. For the same compound, the “Hepatic CoA levels at 24 h” value (C57BL/6J mice; gavage) was “returned to the pre-dose level”, the “Time at which elevation of liver CoA begins after administration” value (C57BL/6J mice; gavage, C57BL/6J male mice) was 2 h and the “Time up to which elevation of liver CoA is maintained” value (C57BL/6J mice; gavage, C57BL/6J male mice) was “up to 8 h”. The “Circulating PZ-3022 at 24 h” value (C57BL/6J mice; gavage, plasma) was “not detected”, the “Parent drug levels in plasma and liver” value (C57BL/6J mice; same oral dosage, 75 ppm chow for 4 weeks) was “higher levels of circulating (FIG. 16C) and liver (FIG. 16D) PZ-3022 compared to PZ-2891” and the “Liver total CoA” value ([1]; 10 and 30 mg/kg, 3 doses, fluorescent derivatization) was “significant, dose-dependent elevation”. For the same compound, the “Liver C2-CoA” value [1, 6] was “increased”, the “Liver C3-CoA” value [1, 6] was “decreased but was not eliminated” and the “Liver CoASH” value ([1]; 10 or 30 mg/kg plus 50 mg/kg pantothenate, 3 doses at 24 h, 4 h after last dose) was “significantly elevated”. The “Liver CoASH” value ([2]; 75 ppm PZ-3022 + 1000 ppm pantothenate chow from day 21 to day 70, males and females) was “restored liver CoASH levels to wild-type”, the “Hepatic C3-CoA” value ([2]; 75 ppm chow to day 70) was “significant drop” and the “Liver C2-CoA” value ([2]; 75 ppm chow to day 70) was “restored to wild-type levels”. The “Liver C2-carnitine” value ([2]; 75 ppm chow to day 70) was “did not exhibit significant increases”, the Liver carnitine ([2]; 75 ppm chow to day 70) was “did not exhibit significant increases” and the “Plasma C3-carnitine” value ([2]; 75 ppm chow to day 70, female mice) was “reduced”. The “Liver C3-carnitine” value [2, 7] was “significantly decreased”, the “Plasma C2-carnitine” value [2, 7] was “significantly increased” and the Plasma carnitine [2, 7] was “increase”. For the same compound, the “Plasma C3-carnitine” value ([2]; 75 ppm chow to day 70, male mice) was “the same in the treated and untreated male mice”, the “Heart total CoA” value ([2]; PZ-3022 chow until 70 days of age) was “increased” and the “Reduction in C3-CoA in liver” value ([2]; PZ-3022 therapy) was 50%. The “Plasma and urine TCA cycle-related metabolite levels” value (wild-type mice; treated vs untreated wild-type mice) was “no differences”, the “Liver C3-CoA” value (wild-type mice; wild-type mice on PZ-3022 chow) was “not altered” and the “Liver CoASH” value (wild-type mice; wild-type mice on PZ-3022 chow) was “increased as expected”. The “Liver acetyl-CoA” value (wild-type mice; wild-type mice on PZ-3022 chow) was “increased as expected”, the “Plasma and urine amino acids” value (wild-type mice; wild-type mice on PZ-3022 chow) was “not changed with the exception of histidine being lower in plasma and higher in urine” and the “Elevation of total cellular CoA” value (C3A cells) was “just as effective at raising total CoA levels in cultured cells as PZ-2891”. For the same compound, the AUC(0-t) (in vivo; iv, 2 mg/kg) was 2960 ng·h/mL, the Cmax (in vivo; iv, 2 mg/kg) was 3290 ng/mL and the bioavailability (in vivo; 10 mg/kg) was 100%. For the same compound, the AUC(0-t) (in vivo; po, 10 mg/kg) was 16900 ng·h/mL, the “Reduction in urinary methylmalonate” value ([3]; 24 h urine) was 47% and the “Reduction of urinary malate” value ([3]; 24 h urine) was 80%. For the same compound, the Urine citrate level [3, 8] was “significantly reduced”, the Urine malate level [3, 8] was “significantly reduced” and the Urine methylmalonate level [3, 8] was “significantly reduced”. The “Urine α-ketoglutarate level” value [3, 8] was “significantly reduced”.
For `O=C(Cc1ccc(C2CC2)c(F)c1)N1CCN(c2ccc(Cl)nn2)CC1` [Compound 1], the “Growth rate, lifespan and movement dysfunction” value [4] was “improvement of growth rate, lifespan, and movement dysfunction” and the “Weight gain, greater than untreated dKO” value ([4]; at the time of evaluation) was 10%.
With `CC(C)c1ccc(CC(=O)N2CCN(c3ccc(C#N)nn3)CC2)cc1` [PZ-2891] the AUCinf ([5]; i.v. 2 mg/kg) was 611.5 ng·h/mL, the AUClast ([5]; i.v. 2 mg/kg) was 608.6 ng·h/mL and the CL ([5]; i.v. 2 mg/kg) was 54.5 mL/min/kg. For the same compound, the T1/2 ([5]; i.v. 2 mg/kg) was 18 min, the Vss ([5]; i.v. 2 mg/kg) was 0.9 L/kg and the AUCinf ([5]; p.o. 10 mg/kg) was 1424.0 ng·h/mL. The AUClast ([5]; p.o. 10 mg/kg) was 1397.8 ng·h/mL, the “C0/Cmax (Cmax)” value ([5]; p.o. 10 mg/kg) was 1886.5 ng/mL and the Tmax ([5]; p.o. 10 mg/kg, 30% Captisol, male BALB/c mice, plasma) was 18 min. It also gave a Cmax (in vivo; iv, 2 mg/kg) of 2810 ng/mL and a bioavailability (in vivo; 10 mg/kg) of 46%.
